Literature values in patent US20160302965A1, “IMPLANTABLE THERAPEUTIC DEVICES” (ForSight Vision4, Inc., priority 2013, published 2016).

Compound | solubility of the prodrug (concentration maintained in the fluid boundary layer) | solubility in PBS at pH 7 (pH 7) | solubility at pH 7 (pH 7)
CCNC(=O)CCC/C=C\C[C@@H]1[C@@H](/C=C/[C@@H](O)CCc2ccccc2)[C@H](O)C[C@@H]1O [bimatoprost] | 300 µg/mL | 300 ug/ml | –
Brc1c(NC2=NCCN2)ccc2nccnc12 [brimonidine] | – | – | about 600 ug/ml
O=C(O)CCC/C=C\C[C@@H]1[C@@H](CC[C@@H](O)CCc2ccccc2)[C@H](O)C[C@@H]1O [latanoprost free acid] | – | 800 ug/ml | –
CC(C)OC(=O)CCC/C=C\C[C@@H]1[C@@H](CC[C@@H](O)CCc2ccccc2)[C@H](O)C[C@@H]1O [latanoprost] | – | 50 ug/ml | –
